Measurements reported in US20170334899A1, “AMINO-SUBSTITUTED ISOTHIAZOLES” (Bayer Pharma Aktiengesellschaft, priority 2014, published 2017).

Columns and labels:
Type in all cases: cell-based
Caco-2 = assay: Proliferation assay (crystal violet), Caco-2; details: Homo sapiens, 96 h; Caco-2 cells; 4 days incubation; crystal violet staining; read-out: IC50 inhibition of proliferation, Caco2
In short: (§1)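 Crystal violet proliferation readout, 4-day compound incubation, 0.001–10 μM, final DMSO 0.5%. Zero-point plate stained at time of dosing set as 0%, untreated control as 100%; IC50 via 4-parameter fit.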

NCI-H460 = assay: Proliferation assay (crystal violet), NCI-H460; details: Homo sapiens, 96 h; NCI-H460 cells; 4 days incubation; crystal violet staining; read-out: IC50 inhibition of proliferation, NCI-H460
In short: as §1

DU145 = assay: Proliferation assay (crystal violet), DU145; details: Homo sapiens, DU-145, 96 h; DU145 cells; 4 days incubation; crystal violet staining; read-out: IC50 inhibition of proliferation, DU145
In short: as §1

B16F10 = assay: Proliferation assay (crystal violet), B16F10; details: Mus musculus, B16-F10, 96 h; B16F10 cells; 4 days incubation; crystal violet staining; read-out: IC50 inhibition of proliferation, B16F10
In short: as §1

HeLa-MaTu-ADR = assay: Proliferation assay (crystal violet), HeLa-MaTu-ADR; details: 96 h; HeLa-MaTu-ADR cells; 4 days incubation; crystal violet staining; read-out: IC50 inhibition of proliferation, HeLa-MaTu-ADR
In short: as §1

IC50 (Caco-2)	IC50 (NCI-H460)	IC50 (DU145)	IC50 (B16F10)	IC50 (HeLa-MaTu-ADR)	Compound
650 nM	460 nM	1100 nM	910 nM	590 nM	Cc1nsc(Nc2cnc3ccccc3n2)c1C(=O)Nc1cccc(C(=O)OC(C)(C)C)c1 [Example 49, tert-Butyl 3-({[3-methyl-5-(quinoxalin-2-ylamino)-1,2-thiazol-4-yl]carbonyl}amino)-benzoate]
260 nM	240 nM	440 nM	410 nM	370 nM	COCCOc1ccc(NC(=O)c2c(C)nsc2Nc2nc3c(C(F)(F)F)cccc3s2)cc1F [Example 1, N-[3-Fluoro-4-(2-methoxyethoxy)phenyl]-3-methyl-5-{[4-(trifluoromethyl)-1,3-benzothiazol-2-yl]amino}-1,2-thiazole-4-carboxamide]
500 nM	360 nM	660 nM	780 nM	320 nM	Cc1nsc(Nc2ccc(C#N)cn2)c1C(=O)Nc1ccc(OC2CCCN(CC(F)(F)F)C2)nc1 (stereo not drawn) [Example 40, 5-[(5-Cyanopyridin-2-yl)amino]-3-methyl-N-(6-{[1-(2,2,2-trifluoroethyl)piperidin-3-yl]oxy}pyridin-3-yl)-1,2-thiazole-4-carboxamide]
350 nM	250 nM	520 nM	350 nM	370 nM	Cc1nsc(Nc2cnc(C(F)(F)F)cn2)c1C(=O)Nc1ccc(OC2CCN(C(=O)OC(C)(C)C)CC2)nc1 [Example 5, tert-Butyl 4-[(5-{[(3-methyl-5-{[5-(trifluoromethyl)pyrazin-2-yl]amino}-1,2-thiazol-4-yl)carbonyl]amino}pyridin-2-yl)oxy]piperidine-1-carboxylate]
330 nM	400 nM	860 nM	550 nM	330 nM	Cc1nsc(Nc2ccc(C#N)cn2)c1C(=O)Nc1ccc(OC2CCCN(C(=O)OC(C)(C)C)C2)nc1 (stereo not drawn) [Example 36, tert-Butyl 3-({5-[({5-[(5-cyanopyridin-2-yl)amino]-3-methyl-1,2-thiazol-4-yl}-carbonyl)amino]pyridin-2-yl}oxy)piperidine-1-carboxylate]
1500 nM	990 nM	2000 nM	2200 nM	810 nM	Cc1nsc(Nc2ccc(C#N)cn2)c1C(=O)Nc1ccc(OC2CCCN(CC(F)F)C2)nc1 (stereo not drawn) [Example 39, 5-[(5-Cyanopyridin-2-yl)amino]-N-(6-{[1-(2,2-difluoroethyl)piperidin-3-yl]oxy}-pyridin-3-yl)-3-methyl-1,2-thiazole-4-carboxamide]
